Source: patent publication US6787560B2, “Serotonin reuptake inhibitor” (Sumitomo Pharmaceuticals Company Limited, priority 2000, dated 2004)

What was measured:
[1] = molecular target: T1, serotonin 1A receptors ([3H]8-OH-DPAT binding, hippocampus membrane preparation) (Rattus norvegicus, UniProt P19327); experiment: [3H]8-OH-DPAT binding test (Test Example 2); details: 2 nM [3H]8-OH-DPAT, test agent concentration not given, read-out: Rate of inhibition of [^3H] 8-OH-DPAT binding (%)
T1 construct: 146 μl of the hippocampus membrane preparation (80 μg/tube in terms of protein); from tissue; host or cells: male rat hippocampus membrane preparation
T1 sequence (P19327 1-422): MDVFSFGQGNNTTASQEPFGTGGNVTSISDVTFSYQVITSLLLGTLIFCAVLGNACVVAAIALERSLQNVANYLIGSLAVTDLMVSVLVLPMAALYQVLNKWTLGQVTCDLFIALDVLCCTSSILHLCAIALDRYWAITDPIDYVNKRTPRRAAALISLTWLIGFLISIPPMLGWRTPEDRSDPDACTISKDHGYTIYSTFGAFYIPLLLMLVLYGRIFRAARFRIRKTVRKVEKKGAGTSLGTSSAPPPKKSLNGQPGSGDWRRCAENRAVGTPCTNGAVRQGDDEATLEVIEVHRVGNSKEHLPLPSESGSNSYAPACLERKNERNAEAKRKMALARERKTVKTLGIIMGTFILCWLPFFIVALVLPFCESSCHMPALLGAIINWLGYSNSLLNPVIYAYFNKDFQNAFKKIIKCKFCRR
Protocol: [^3H]18-OH-DPAT Binding Test
The test was carried out according to the method^2) of Hall M. D. et al. After pre-breeding for about 1 week, a male rat was decapitated and the brain was immediately removed. The hippocampus was separated from the brain on ice, and 50 mM Tris-HCl (pH=7.4) was added to the hippocampus in an amount of 40 times the wet weight of the hippocampus, followed by homogenization (3 min, 1 stroke/min) in an ice bath by the use of a Teflon-glass homogenizer. Then, the homogenate was centrifuged (4° C.) at 40,000×g for 10 minutes. The resulting precipitate was dispersed in an ice-cooled buffer solution (50 mM Tris-HCl (pH=7.4)) by the use of Hiscotron, followed by centrifugation (4° C.) at 40,000×g for 10 minutes. Moreover, the resulting precipitate was re-suspended and the washing procedure was repeated once. The precipitate thus obtained was dispersed in an ice-cooled buffer solution (50 mM Tris-HCl (pH=7.4)) by the use of Hiscotron™, and the resulting dispersion was incubated at 37° C. for 1 hour and then centrifuged (4° C.) at 40,000×g for 10 minutes. Furthermore, the resulting precipitate was re-suspended and the washing procedure was repeated once. The resulting membrane preparation was suspended in the same buffer solution as described above, and then subjected to cryopreservation at −80° C.
Measurement was carried out by using a liquid for reaction obtained by adding 50 μl of [^3H]8-OH-DPAT (final concentration: 2 nM), 4 μl of a solution of a test agent and 146 μl of the hippocampus membrane preparation (80 μg/tube in terms of protein) to a buffer solution containing 50 mM Tris-HCl (pH=7.4) and 4 mM CaCl2 to make a total volume of 200 μl. The liquid for reaction was allowed to react at room temperature for 30 minutes and then rapidly filtered by suction at a low pressure through glass fiber filter paper. The glass fiber filter paper was washed twice with 250 μl of a buffer solution and then added to a glass vial containing 4 ml of ACS-II (Amersham), and the radioactivity bound to receptors and remaining on the filter paper was measured with a liquid scintillation counter. The amount of [^3H]8-OH-DPAT bound in the presence of 1 μM of 8-OH-DPAT was taken as the amount of [^3H]8-OH-DPAT non-specifically bound.
(§1) Rate of binding inhibition was calculated by the following equation:
Rate of binding inhibition (%)=100−100×{[amount of [^3H]8-OH-DPAT bound in the presence of test substance]−[amount of [^3H]8-OH-DPAT bound in the presence of 1 μM 8-OH-DPAT]/[amount of [^3H]8-OH-DPAT bound in the absence of test substance]−[amount of [^3H]8-OH-DPAT bound in the presence of 1 μM 8-OH-DPAT]}

[2] = molecular target: T2, human 5-HT1A receptors (human 5-HT1A/CHO membrane preparation) (Homo sapiens, UniProt P08908); experiment: 5-HT1A receptor actuation test, [35S]GTPγS binding (Test Example 3); type: biochemical; details: 10^-5 M test substance; rate of increase in [35S]GTPγS binding, increase due to 10 μM 5-HT taken as 100%
T2 construct: expressed in transfected cells; host or cells: CHO cells (human 5-HT1A/CHO), Geneticin-selected
T2 sequence (P08908 1-422): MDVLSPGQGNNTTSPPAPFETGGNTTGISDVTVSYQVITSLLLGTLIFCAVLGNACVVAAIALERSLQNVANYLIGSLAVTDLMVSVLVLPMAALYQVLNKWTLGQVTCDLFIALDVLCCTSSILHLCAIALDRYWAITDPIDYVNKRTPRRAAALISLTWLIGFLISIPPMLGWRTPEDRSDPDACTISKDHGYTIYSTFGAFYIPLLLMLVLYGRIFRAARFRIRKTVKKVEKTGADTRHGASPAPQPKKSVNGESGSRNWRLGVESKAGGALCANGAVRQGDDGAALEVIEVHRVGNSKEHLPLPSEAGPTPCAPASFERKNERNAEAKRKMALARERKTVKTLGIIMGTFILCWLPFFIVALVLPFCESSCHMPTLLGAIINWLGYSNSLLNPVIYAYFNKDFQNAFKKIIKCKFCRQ
Protocol: 5-HT1A Receptor Actuation Test
3-1. Cells Used and Preparation of a Membrane Preparation
Human ^5-HT1A receptor expression CHO cells (human 5-HT1A/CHO) were used in the experiment. The cells were cultured on F12 containing 10% FCS, 500 μg/ml Geneticin and 100 U/ml penicillin-100 μg/ml streptomycin (all available from GIBCO) in a 5% CO2 incubator, and a membrane preparation was prepared according to the method^3) of A. Newman et al. In detail, cells peeled and collected by the use of buffer solution A (20 mM HEPES, 5 mM MgSO4) were homogenized in a Teflon homogenizer, followed by centrifugation (50,000×g, 30 min, 4° C.). The precipitate was re-suspended in a suitable volume of buffer solution A and stored at −80° C. until use The amount of proteins in the membrane preparation was determined with Dye Reagent Concentrate (BIO-RAD) by using Albumin Bovine (SIGMA) as a standard substance.
Binding of [^35S]GTPγS to human 5-HT1A receptors was measured by the use of the above-mentioned membrane preparation according to the method^3) of Newman et al. In detail, 0.05 nM of [^35S]GTPγS (E. I. du Pont de Nemours & Co. NEN) and a definite amount (about 50 μg/tube) of the membrane preparation were added to buffer solution B (20 mM HEPES, 3 mM MgSO4, 3 μM GDP, 1 mM DTT) containing 10^−5M of each test substance, and the resulting liquid for reaction having a total volume of 1 ml was incubated at 22° C. for 20 minutes. After completion of the reaction, the reaction mixture was diluted with 5 ml of ice-cooled buffer solution B, and the dilution was rapidly filtered by suction at a low pressure through glass fiber filter paper (Whatman, GF/B) to terminate the reaction. The glass fiber filter paper was washed twice with the same buffer solution as above and placed in a vial, and 4 ml of ACS-II was added thereto. The radioactivity of [^35S]GTPγS on the filter paper was measured with a liquid scintillation counter. The amount of [^35S]GTPγS specifically bound was calculated from the amount of [^35S]GTPγS non-specifically bound in the presence of 10 μM of GTPγS (Sigma). The 5-HTLA receptor actuating activity of each test substance was expressed in terms of the rate of increase in [^35S]GTPγS binding by taking an increase in [^35S]GTPγS binding due to 10 μM of 5-HT as 100%.

[3] = molecular target: T3, [3H]citalopram binding site, cerebral cortex membrane preparation (serotonin reuptake) (Rattus norvegicus, UniProt P31652); experiment: Screening test using [3H]citalopram binding (Test Example 1); details: 0.7 nM [3H]citalopram, test agent concentration not given, read-out: Rate of inhibition of [^3H] citalopram binding (%)
T3 construct: 146 μl of the cerebral cortex membrane preparation (72 μg/well in terms of protein); from tissue; host or cells: male rat cerebral cortex membrane preparation
Protocol: Screening Test Using [^3H[Citalopram Binding
1-1. Preparation of a Cerebral Cortex Membrane Preparation
The membrane preparation was prepared according to the method^1) of D'amato et al. In detail, after a male rat was decapitated, the whole brain was immediately removed and the cerebral cortex was separated therefrom under ice-cooling. A buffer solution (50 mM Tris-HCl (pH=7.4), 120 mM NaCl, 5 mM KCl) was added to the cerebral cortex in an amount of 2.5 times the wet weight of the cerebral cortex, followed by homogenization in an ice bath by the use of a Teflon-glass homogenizer. The homogenate was centrifuged at 4° C. and 45,000×g for 10 minutes, and the resulting precipitate was dispersed in an ice-cooled buffer solution (50 mM Tris-HCl (pH=7.4), 120 mM NaCl, 5 mM KCl) by the use of Hiscotron™, followed by centrifugation at 4° C. and 45,000×g for 10 minutes. The resulting precipitate was re-suspended and the washing procedure was repeated. The membrane preparation thus obtained was suspended in the same buffer solution as described above, and then subjected to cryopreservation at −80° C.
1-2 Receptor Binding Experiment
[^3H]citalopram binding was measured according to the method^1) of D'amato et al. In detail, 50 μl of a dilution (final concentration: 0.7 nM) of [^3H]citalopram with 50 mM Tris-HCl (pH=7.4) buffer containing 120 mM NaCl and 5 mM KCl, 146 μl of the cerebral cortex membrane preparation (72 μg/well in terms of protein) and 4 μl of a solution of a test agent in dimethyl sulfoxide were mixed to make a total volume of 200 μl. The resulting liquid was allowed to react at room temperature for 60 minutes and then rapidly filtered by suction at a low pressure through glass fiber filter paper. The glass fiber filter paper was washed twice with 250 μl of the same buffer solution as above and then transferred to a glass vial containing 4 ml of ACS-II (Amersham), and the radio-activity remaining on the filter paper was measured with a liquid scintillation counter.
The amount of [^3H]citalopram bound in the presence of 100 μM 5-HT was taken as the amount of [^3H]citalopram non-specifically bound.
as §1
Rate of binding inhibition (%)=100−100×{[amount of [^3H]citalopram bound in the presence of test agent]−[amount of [^3H]citalopram bound in the presence of 100 μM 5-HT]/[amount of [^3H]citalopram bound in the absence of test agent]−[amount of [^3H]citalopram bound in the presence of 100 μM 5-HT]}

T3 sequence (P31652 whole entry): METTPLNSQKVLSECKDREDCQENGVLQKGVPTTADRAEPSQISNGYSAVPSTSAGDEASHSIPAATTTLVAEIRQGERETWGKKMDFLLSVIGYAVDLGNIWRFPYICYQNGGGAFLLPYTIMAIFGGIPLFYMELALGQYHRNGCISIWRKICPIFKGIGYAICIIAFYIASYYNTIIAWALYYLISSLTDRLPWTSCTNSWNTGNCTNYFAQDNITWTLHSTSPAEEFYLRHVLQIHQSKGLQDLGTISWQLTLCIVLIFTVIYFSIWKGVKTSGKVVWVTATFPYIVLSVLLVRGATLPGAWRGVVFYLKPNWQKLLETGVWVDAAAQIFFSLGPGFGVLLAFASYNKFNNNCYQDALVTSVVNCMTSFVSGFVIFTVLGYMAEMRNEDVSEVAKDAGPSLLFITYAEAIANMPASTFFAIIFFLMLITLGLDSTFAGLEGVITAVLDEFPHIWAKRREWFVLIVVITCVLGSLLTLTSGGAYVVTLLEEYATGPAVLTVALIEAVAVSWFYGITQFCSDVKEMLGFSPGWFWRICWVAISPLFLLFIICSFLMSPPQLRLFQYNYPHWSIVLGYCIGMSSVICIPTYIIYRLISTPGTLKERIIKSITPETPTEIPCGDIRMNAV

Structure (SMILES)	inhibition [1] [%]	5-HT14 receptor actuating activity (%) [2] [%]	inhibition [3] [%]
COc1ccc(Br)c(CC2CCN(Cc3cccc(C(=O)NCc4ccccc4)c3)CC2)c1 [Example 12]	98	19	100
NC(=O)c1cccc(CCN2CCC(Cc3ccccc3Br)CC2)c1 [Example 49]	47	48	98
COc1ccc(Br)c(CC2CCN(CCc3cccc4ccccc34)CC2)c1 [Example 54, N-(2-(1-naphthyl)ethyl)-4-(2-bromo-5-methoxybenzyl)piperidine]	92		73
COc1ccc(Cl)c(CC2CCN(CCCN3C(=O)c4ccccc4C3=O)CC2)c1 [Example 82, N-(3-phthaliminopropyl)-4-(2-chloro-5-methoxybenzyl)piperidine]	72	49	100
COc1ccc(Br)c(CC2CCN(CCc3ccccc3)CC2)c1 [Example 11, N-phenethyl-4-(2-bromo-5-methoxybenzyl)-piperidine]	96	32	82

More lines, now with the values ahead:

inhibition [1] [%]	5-HT14 receptor actuating activity (%) [2] [%]	inhibition [3] [%]	Structure (SMILES)
74	48	86	CCOc1ccc(Br)c(CC2CCN(CCc3ccccc3Cl)CC2)c1 [Example 169, N-(2-(2-chlorophenyl)ethyl)-4-(2-bromo-5-ethoxybenzyl)piperidine]
94	52	91	COc1ccc(Br)c(CC2CCN(CCc3cccnc3)CC2)c1 [Example 103, N-(2-(3-pyridyl)ethyl)-4-(2-bromo-5-methoxybenzyl)piperidine]
